Assay results published in PubChem BioAssay AID212 (DTP/NCI, 2004).
“And” between values parts separate entries of the source, which are not always exact repeats. Equal values may be shown once. Inconclusive results are not listed.

Tested on: BDF1 mice, colon carcinoma 38 sc, T/C %
Experiment: NCI In Vivo Anticancer Drug Screen. Data for tumor model Colon Carcinoma 38 (subcutaneous) in B6D2F1 (BDF1) mice
Procedure, shortened: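 Mice with transplanted tumors are treated with compound or vehicle. Survival or tumor size is then measured in both groups. The ratio of treated to control gives the reported figure.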

[1] = endpoint: median tumor weight (est.), dose: 25.0 mg/kg/injection, schedule: Q07DX002 (ip), vehicle: saline with Tween-80, higher = larger tumour
[2] = endpoint: median tumor weight (est.), dose: 200.0 mg/kg/injection, schedule: Q07DX002 (ip), vehicle: saline with Tween-80, higher = larger tumour
[3] = endpoint: median tumor weight (est.), dose: 400.0 mg/kg/injection, schedule: Q07DX002 (ip), vehicle: saline with Tween-80, higher = larger tumour

NC(C/[N+]([O-])=N/O)C(=O)O (stereo not given)
T/C (endpoint: median survival time, dose: 52.7 mg/kg/injection, schedule: Q04DX005 (ip), vehicle: alkali diluted with saline, higher = longer survival): 109 % of control | T/C (endpoint: median survival time, dose: 79.0 mg/kg/injection, schedule: Q04DX005 (ip), vehicle: alkali diluted with saline, higher = longer survival): 86 % of control and 88 % of control | T/C (endpoint: median survival time, dose: 119.0 mg/kg/injection, schedule: Q04DX005 (ip), vehicle: alkali diluted with saline, higher = longer survival): 109 % of control and 116 % of control | T/C (endpoint: median survival time, dose: 178.0 mg/kg/injection, schedule: Q04DX005 (ip), vehicle: alkali diluted with saline, higher = longer survival): 100 % of control and 102 % of control | T/C (endpoint: median survival time, dose: 267.0 mg/kg/injection, schedule: Q04DX005 (ip), vehicle: alkali diluted with saline, higher = longer survival): 93 % of control and 94 % of control | T/C (endpoint: median survival time, dose: 400.0 mg/kg/injection, schedule: Q04DX005 (ip), vehicle: alkali diluted with saline, higher = longer survival): 95 % of control | T/C (endpoint: median survival time, dose: 600.0 mg/kg/injection, schedule: Q04DX005 (ip), vehicle: alkali diluted with saline, higher = longer survival): 79 % of control | T/C (endpoint: median tumor weight (est.), dose: 32.0 mg/kg/injection, schedule: Q07DX003 (ip), vehicle: saline, higher = larger tumour): 108 % of control | T/C (endpoint: median tumor weight (est.), dose: 64.0 mg/kg/injection, schedule: Q07DX003 (ip), vehicle: saline, higher = larger tumour): 70 % of control | T/C (endpoint: median tumor weight (est.), dose: 128.0 mg/kg/injection, schedule: Q07DX003 (ip), vehicle: saline, higher = larger tumour): 92 % of control | T/C (endpoint: median tumor weight (est.), dose: 256.0 mg/kg/injection, schedule: Q07DX003 (ip), vehicle: saline, higher = larger tumour): 100 % of control | T/C (endpoint: median tumor weight (est.), dose: 512.0 mg/kg/injection, schedule: Q07DX003 (ip), vehicle: saline, higher = larger tumour): 56 % of control | T/C (endpoint: median tumor weight (est.), dose: 1024.0 mg/kg/injection, schedule: Q07DX003 (ip), vehicle: saline, higher = larger tumour): 72 % of control

COC1OC(CO)C(O)C(NC(=O)N(C)N=O)C1O (stereo not given)
T/C (endpoint: median tumor weight (est.), dose: 12.5 mg/kg/injection, schedule: Q07DX002 (ip), vehicle: saline, higher = larger tumour): 113 % of control | T/C (endpoint: median tumor weight (est.), dose: 50.0 mg/kg/injection, schedule: Q07DX002 (ip), vehicle: saline, higher = larger tumour): 95 % of control and 102 % of control | T/C (endpoint: median tumor weight (est.), dose: 800.0 mg/kg/injection, schedule: Q07DX002 (ip), vehicle: saline, higher = larger tumour): 2 % of control and 9 % of control

OCCOCC(F)(F)F
T/C [1]: 86 % of control | T/C [2]: 120 % of control and 104 % of control | T/C [3]: 116 % of control and 102 % of control

COC(=Nc1ccccc1)SSC(C)C
T/C [1]: 99 % of control | T/C (endpoint: median tumor weight (est.), dose: 50.0 mg/kg/injection, schedule: Q07DX002 (ip), vehicle: saline with Tween-80, higher = larger tumour): 84 % of control | T/C (endpoint: median tumor weight (est.), dose: 100.0 mg/kg/injection, schedule: Q07DX002 (ip), vehicle: saline with Tween-80, higher = larger tumour): 88 % of control | T/C [2]: 100 % of control | T/C [3]: 96 % of control

CCC(C)(OC(C)=O)C(=O)OC1C(=O)OC2CC3C(C)=CC(O)C(O)C3(C)C3C4(O)OCC23C1C(C)C4O (stereo not given)
T/C (endpoint: median tumor weight (est.), dose: 0.12 mg/kg/injection, schedule: Q07DX002 (ip), vehicle: saline + alcohol, higher = larger tumour): 80 % of control | T/C (endpoint: median tumor weight (est.), dose: 0.25 mg/kg/injection, schedule: Q07DX002 (ip), vehicle: saline + alcohol, higher = larger tumour): 48 % of control | T/C (endpoint: median tumor weight (est.), dose: 0.5 mg/kg/injection, schedule: Q07DX002 (ip), vehicle: saline + alcohol, higher = larger tumour): 79 % of control | T/C (endpoint: median tumor weight (est.), dose: 1.0 mg/kg/injection, schedule: Q07DX002 (ip), vehicle: saline + alcohol, higher = larger tumour): 43 % of control | T/C (endpoint: median tumor weight (est.), dose: 2.0 mg/kg/injection, schedule: Q07DX002 (ip), vehicle: saline + alcohol, higher = larger tumour): 75 % of control | T/C (endpoint: median tumor weight (est.), dose: 4.0 mg/kg/injection, schedule: Q07DX002 (ip), vehicle: saline + alcohol, higher = larger tumour): 105 % of control

CC[C@](O)(C(=O)O)c1cc2n(c(=O)c1CO)Cc1cc3ccccc3nc1-2
T/C (endpoint: median tumor weight (est.), dose: 6.25 mg/kg/injection, schedule: Q07DX003 (ip), vehicle: saline, higher = larger tumour): 48 % of control and 62 % of control | T/C (endpoint: median tumor weight (est.), dose: 12.5 mg/kg/injection, schedule: Q07DX003 (ip), vehicle: saline, higher = larger tumour): 38 % of control and 60 % of control | T/C (endpoint: median tumor weight (est.), dose: 25.0 mg/kg/injection, schedule: Q07DX003 (ip), vehicle: saline, higher = larger tumour): 34 % of control and 41 % of control and 54 % of control | T/C (endpoint: median tumor weight (est.), dose: 50.0 mg/kg/injection, schedule: Q07DX003 (ip), vehicle: saline, higher = larger tumour): 23 % of control and 26 % of control and 45 % of control | T/C (endpoint: median tumor weight (est.), dose: 100.0 mg/kg/injection, schedule: Q07DX003 (ip), vehicle: saline, higher = larger tumour): 9 % of control
